Results as given in US20160061843A1, “BIOMARKER ASSAY” (Respiratory Clinical Trials Ltd, priority 2014, published 2016).

Assays:
Assay type in all cases: cell-based, human
[1] = tested on: intracellular pSTAT1 in macrophages; assay: Flow cytometry of IFNγ-induced STAT1 phosphorylation in induced sputum macrophages from COPD subjects; conditions: IFNγ 10 ng/ml
From the text: Sputum samples were collected from 15 COPD subjects on three or four repeat visits (i.e., three to four samples per subject). In each case, the subject inhaled 3% (w/v) saline solution mist through the mouthpiece of an ultrasonic nebulizer for five minutes. Sputum mobilization techniques were utilized to assist with the production of a sputum sample, such as diaphragmatic breathing, huffs, percussion, vibrations and positive expiratory pressure techniques. The subject was asked to attempt to cough sputum into a sputum collection pot. If the FEV1 fell by <10% after inhalation of 3% (w/v) saline, the participant was asked to inhale the next saline concentration (4% w/v) and repeat the procedure detailed above. Again if the FEV1 fell by <10% after inhalation of 4% (w/v) saline, the participant was asked to inhale the next saline concentration (5% w/v) and repeat the procedure detailed above. The sputum collected after 15 minutes of nebulization (i.e., 3×5 minutes) was processed in the laboratory for flow cytometric analysis. Induced sputum was kept on ice and processed as soon as possible but no more than two hours from collection. Sputum plugs were selected for processing and suitably transferred into a centrifuge tube. The volume of the selected sputum sample was noted and an equal volume of DPBS added. To liquefy the sample Sputolysin® was added to a final concentration of 0.05% (w/v). The tube was placed on a plate shaker (300 rpm) for 30 minutes at room temperature to disperse the cells. After 30 minutes the sample was mixed gently with a Pasteur pipette and left to shake for a further 15 minutes. The sample was centrifuged at 1200 rpm for 10 minutes at room temperature. Sputum supernatant was collected and used to measure cytokines/chemokines of interest. […] The supernatant was removed and the cell pellet resuspended in 500 μl staining buffer ready for flow cytometric analysis. […] Levels of STAT phosphorylation in the macrophage population were determined by taking the MFI of the stimulated sample and dividing by the MFI for the non-stimulated sample.

[2] = tested on: intracellular pSTAT1(Y701) in macrophages; assay: Flow cytometry of IFNγ-induced STAT1(Y701) phosphorylation in induced sputum macrophages from smokers; conditions: unstimulated MFI 345.5; sputum from two smokers
Description: FIG. 11A is a line graph showing the stimulation of STAT1(Y701) phosphorylation in macrophages and neutrophils from induced sputum by IFNγ, and inhibition of such phosphorylation after pre-incubation with increasing concentrations of a MK2 inhibitor followed by IFNγ stimulation. FIG. 11B is a bar graph showing phosphorylation of STAT1 (Y701) in macrophages in the presence and absence of the MK2 inhibitor expressed as % stimulation. % stimulation was calculated as stimulated MFI/non-stimulated MFI×100.
Induced sputum samples were obtained as described in Example 1. In this study, however, the subjects were smokers. Sputum was collected from two subjects.
Sputum samples were processed as described in Example 1.
Inducing STAT1(Y701) Phosphorylation STAT phosphorylation was induced as described in Example 1. In this study, however, the inhibitor compound was a MK2 inhibitor […].
Samples were stained as described in Example 1. However, in this study, and in order to specifically detect STAT1(Y701) phosphorylation, an Alexa Fluor® 647 conjugated anti-pSTAT1(Y701) antibody was used.
Levels of STAT1(Y701) phosphorylation in the macrophage population were determined by taking the MFI of the stimulated sample and dividing by the MFI for the non-stimulated sample. A value of greater than one (>1) indicated positive staining.

[3] = tested on: intracellular pSTAT3 in sputum macrophages; assay: Flow cytometry of IFNγ-induced STAT3 phosphorylation in induced sputum macrophages from COPD subjects; conditions: % stimulation = stimulated MFI/non-stimulated MFI×100; IFNγ 10 ng/ml
Description: FIG. 10 is a bar graph showing STAT3 phosphorylation in sputum macrophages following stimulation with IFNγ in the absence or presence of increasing concentrations of a MK2 inhibitor. % stimulation was calculated as stimulated MFI/non-stimulated MFI×100.
The methods of Example 1 were repeated exactly, but this time measuring intracellular STAT3 phosphorylation using an Alexa Fluor® 647 conjugated anti-pSTAT3 antibody. In addition, a MK2 inhibitor was tested instead of a JAK inhibitor compound. Increasing concentrations of inhibitor were tested (1 μM, 10 μM and 100 μM); the same conditions otherwise applied.

Row | Compound | inhibition of STAT1 phosphorylation (in words) ([1]; inhibitor final concentration 10^−5 M) | MFI of intracellular pSTAT1 in macrophages after incubation with IFNγ+JAK inhibitor ([1]; inhibitor final concentration 10^−5 M, unstimulated MFI 120.7±23.92, stimulated MFI 196.7±33.97) | MFI of intracellular pSTAT1(Y701) in macrophages stimulated with IFNγ [2] | increase of intracellular pSTAT3 in sputum macrophages following incubation with IFNγ [3] [%] | MFI of intracellular pSTAT1 in macrophages after incubation with IFNγ ([1]; 20 min, 37° C., unstimulated MFI 120.7±23.92, 15 COPD subjects)
1 | C[C@@H]1CCN(C(=O)N2CCCC2)C[C@@H]1N(C)c1ncnc2[nH]ccc12 [JAK inhibitor, PF 956980] | complete inhibition | 118.3±24.44 | – | – | –
2 | IFNγ: cytokine used as stimulator of STAT phosphorylation | – | – | 511 | 100 | 196.7±33.97
